Reference: US11136317B2, “NADPH oxidase 4 inhibitors” (ACTELION PHARMACEUTICALS LTD, priority 2015, dated 2021)

Each molecule was assayed against T1, human NOX4 (Homo sapiens, UniProt Q9NPH5) (assay: Amplex Red activity assay (cellular H2O2 formation in hNOX4 T-REx-293 cells)). Settings: tet-induced 24 h, extracellular H2O2 by Amplex Red, 60 min 25° C., geometric mean if determined several times.
T1 construct: The full-length human NOX4 (NM_016931.3) transcript was cloned; expressed in transfected cells
T1 sequence (Q9NPH5 1-578): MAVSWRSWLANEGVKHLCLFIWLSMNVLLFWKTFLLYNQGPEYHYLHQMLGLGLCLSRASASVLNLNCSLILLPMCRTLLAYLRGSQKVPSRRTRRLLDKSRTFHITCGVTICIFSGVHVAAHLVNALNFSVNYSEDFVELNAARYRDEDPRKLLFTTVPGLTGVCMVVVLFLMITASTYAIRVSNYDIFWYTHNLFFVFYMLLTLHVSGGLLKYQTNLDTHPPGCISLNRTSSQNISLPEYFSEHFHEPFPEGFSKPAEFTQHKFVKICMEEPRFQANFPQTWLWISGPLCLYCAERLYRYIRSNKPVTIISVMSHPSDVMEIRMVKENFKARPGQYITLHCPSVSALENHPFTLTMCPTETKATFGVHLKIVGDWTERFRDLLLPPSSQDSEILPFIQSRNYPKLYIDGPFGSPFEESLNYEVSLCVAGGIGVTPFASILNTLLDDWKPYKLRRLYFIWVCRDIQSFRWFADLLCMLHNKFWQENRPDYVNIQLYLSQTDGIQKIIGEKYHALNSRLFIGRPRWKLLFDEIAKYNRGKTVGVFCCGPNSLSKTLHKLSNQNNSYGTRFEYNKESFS
T1 sequence (P13498 1-195 partner): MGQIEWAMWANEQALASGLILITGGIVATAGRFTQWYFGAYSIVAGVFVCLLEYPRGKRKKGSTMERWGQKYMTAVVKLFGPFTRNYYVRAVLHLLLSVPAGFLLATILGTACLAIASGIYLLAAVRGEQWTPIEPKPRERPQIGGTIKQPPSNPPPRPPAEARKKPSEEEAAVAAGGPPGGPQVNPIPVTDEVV
Type: cell-based
Description: The nucleotide sequence and the amino acid sequence for the human NOX4 (Entrez Gene ID 50507) is known in the art and are published. The potency and efficacy of the compounds of Formula (I) are assessed for their potential to inhibit the formation of ROS in a cellular assay.
The full-length human NOX4 (NM_016931.3) transcript was cloned into the pDONR™221 vector (Life Technologies™) in order to generate, by site-specific integration according to the recommendation of the manufacturer (Life Technologies™), a recombinant pJTI™ R4 DEST CMV-TO vector containing the NOX4 coding information controlled by tetracycline (tet) responsive tet-on cytomegalovirus promoter (hNOX4 pDEST).
Modified human embryonic kidney cells overexpressing a tet receptor (Jump-In™ T-REx™ HEK293; Life Technologies™) were transfected with the NOX4-containing tet-on vector (hNOX4 pDEST) to generate a stable recombinant cell pool (hNOX4 T-REx-293). hNOX4 T-REx-293 cells were cultured in DMEM containing 4.5 g/L glucose supplemented with 10% fetal calf serum, penicillin (100 U/mL), streptomycin (100 μg/mL), geneticin (1 mg/mL), and blasticidin (5 μg/mL) at 37° C. in air with 5% CO2. Human Nox4 expression was induced with tet (1 μg/mL) for 24 h and extracellular H2O2 was quantified using the Amplex Red reagent (Life Technologies™).
Compounds were prepared as 10 mM stock solution in DMSO vehicle, then diluted in 384-well plates using DMSO followed by a transfer of the dilutions into the assay plate. As a control, diphenylene iodonium was included at a final concentration of 10 μM. Compounds were tested at 10 concentrations in the range from 50 μM highest to 100 nM lowest.
Cellular H2O2 formation was measured using the Amplex Red reagent. […] Cells were seeded into 384-well clear bottom plates at a density of 20 000 cells per well in presence or absence of compounds. […] All wells contained 1.25% of DMSO. The plates were kept at 25° C. for 60 min. The amount of produced resorufin was detected with the Synergy™ Mx microplate reader (BioTek) with excitation and emission wavelengths set to 550 nm and 600 nm, respectively. Fluorescence was measured for each well and the fluorescence at 600 nm wavelength was compared to the fluorescence of the vehicle in place of compound. Inhibitory activities of example compounds were determined by calculating the IC50 value (the concentration of compound needed to inhibit 50% of the enzyme activity). The calculated IC50 values may fluctuate depending on the daily cellular assay performance. Fluctuations of this kind are known to those skilled in the art.

Row | Compound | IC50 [µM]
1 | CN(c1nc2cc(NC(=O)c3ccc4c(c3)CCO4)ccc2s1)C1CCN(C2COC2)CC1 [Example 100, 2,3-Dihydro-benzofuran-5-carboxylic acid {2-[methyl-(1-oxetan-3-yl-piperidin-4-yl)-amino]-benzothiazol-5-yl}-amide] | 3.39
2 | O=C(Nc1ccc2oc(N3CCC3)nc2c1)c1ccc2c(c1)CCO2 [Example 118, 2,3-Dihydro-benzofuran-5-carboxylic acid (2-azetidin-1-yl-benzooxazol-5-yl)-amide] | 0.504
3 | CCOCC1CCCN1c1nc2cc(NC(=O)c3ccc4c(c3)CCO4)ccc2o1 (centres unmarked) [Example 51, 2,3-Dihydro-benzofuran-5-carboxylic acid [2-(2-ethoxymethyl-pyrrolidin-1-yl)-benzooxazol-5-yl]-amide] | 4.57
4 | O=C(Nc1ccc2oc(N3CCCC(F)(F)C3)nc2c1)c1ccc2c(c1)OCO2 [Example 130, Benzo[1,3]dioxole-5-carboxylic acid [2-(3,3-difluoro-piperidin-1-yl)-benzooxazol-5-yl]-amide] | 0.991
5 | O=C(Nc1ccc2oc(N3CCCC3)nc2c1)c1ccc2c(c1)OCO2 [Example 127, Benzo[1,3]dioxole-5-carboxylic acid (2-pyrrolidin-1-yl-benzooxazol-5-yl)-amide] | 1.25
6 | O=C(Nc1ccc2oc(N3CCC34COC4)nc2c1)c1ccc2c(c1)OCCO2 [Example 160, 2,3-Dihydro-benzo[1,4]dioxine-6-carboxylic acid [2-(6-oxa-1-aza-spiro[3.3]hept-1-yl)-benzooxazol-5-yl]-amide] | 0.541
7 | O=C(Nc1ccc2sc(N3CCCC4(COC4)C3)nc2c1)c1ccc2c(c1)CCO2 [Example 101, 2,3-Dihydro-benzofuran-5-carboxylic acid [2-(2-oxa-6-aza-spiro[3.5]non-6-yl)-benzothiazol-5-yl]-amide] | 2.37
8 | CCOCC1CCCN1c1nc2cc(NC(=O)c3ccc4c(c3)CCO4)ccc2s1 (centres unmarked) [Example 107, 2,3-Dihydro-benzofuran-5-carboxylic acid [2-(2-ethoxymethyl-pyrrolidin-1-yl)-benzothiazol-5-yl]-amide] | 9.51
9 | CN(c1nc2cc(NC(=O)c3ccc4c(c3)CCO4)ccc2o1)C1CCN(C2COC2)CC1 [Example 54, 2,3-Dihydro-benzofuran-5-carboxylic acid {2-[methyl-(1-oxetan-3-yl-piperidin-4-yl)-amino]-benzooxazol-5-yl}-amide] | 2.91
10 | COC1CCN(c2nc3cc(NC(=O)c4ccc5c(c4)OCCO5)ccc3o2)CC1 [Example 169, 2,3-Dihydro-benzo[1,4]dioxine-6-carboxylic acid [2-(4-methoxy-piperidin-1-yl)-benzooxazol-5-yl]-amide] | 0.793
11 | CN(C)C1CCN(c2nc3cc(NC(=O)c4ccc5c(c4)CCO5)ccc3s2)CC1 [Example 97, 2,3-Dihydro-benzofuran-5-carboxylic acid [2-(4-dimethylamino-piperidin-1-yl)-benzothiazol-5-yl]-amide] | 6.3
12 | O=C(Nc1ccc2oc(N3CCCC4(COC4)C3)nc2c1)c1ccc2c(c1)OCCO2 [Example 171, 2,3-Dihydro-benzo[1,4]dioxine-6-carboxylic acid [2-(2-oxa-6-aza-spiro[3.5]non-6-yl)-benzooxazol-5-yl]-amide] | 0.792
13 | O=C(Nc1ccc2oc(N3CCC(O)CC3)nc2c1)c1ccc2c(c1)CCCO2 [Example 151, Chroman-6-carboxylic acid [2-(4-hydroxy-piperidin-1-yl)-benzooxazol-5-yl]-amide] | 1.41
14 | CN(C)C1(C)CN(c2nc3cc(NC(=O)c4ccc5c(c4)CCO5)ccc3o2)C1 [Example 73, 2,3-Dihydro-benzofuran-5-carboxylic acid [2-(3-dimethylamino-3-methyl-azetidin-1-yl)-benzooxazol-5-yl]-amide] | 4.1
15 | O=C(Nc1ccc2oc(N3CC[C@H](O)C3)nc2c1)c1ccc2c(c1)CCO2 [Example 46, 2,3-Dihydro-benzofuran-5-carboxylic acid [2-((S)-3-hydroxy-pyirolidin-1-yl)-benzooxazol-5-yl]-amide] | 0.57

Second part, the molecule after the results:

Row | IC50 [µM] | Compound
16 | 1.42 | O=C(Nc1ccc2oc(N3CCOCC3)nc2c1)c1ccc2c(c1)OCCO2 [Example 173, 2,3-Dihydro-benzo[1,4]dioxine-6-carboxylic acid (2-morpholin-4-yl-benzooxazol-5-yl)-amide]
17 | 4.32 | CN1CCOc2ccc(C(=O)Nc3ccc4oc(N5CCOCC5)nc4c3)cc21 [Example 192, 4-Methyl-3,4-dihydro-2H-benzo[1,4]oxazine-6-carboxylic acid (2-morpholin-4-yl-benzooxazol-5-yl)-amide]
18 | 3.64 | CN1CCOc2ccc(C(=O)Nc3ccc4oc(N5CCCC(F)(F)C5)nc4c3)cc21 [Example 188, 4-Methyl-3,4-dihydro-2H-benzo[1,4]oxazine-6-carboxylic acid [2-(3,3-difluoro-piperidin-1-yl)-benzooxazol-5-yl]-amide]
19 | 8.85 | O=C(Nc1ccc2oc(N3CCC4(CC3)COC4)nc2c1)c1ccc2c(c1)OCCO2 [Example 172, 2,3-Dihydro-benzo[1,4]dioxine-6-carboxylic acid [2-(2-oxa-7-aza-spiro[3.5]non-7-yl)-benzooxazol-5-yl]-amide]
20 | 0.639 | O=C(Nc1ccc2oc(N3CCCCC3)nc2c1)c1ccc2c(c1)CCO2 [Example 2, 2,3-Dihydro-benzofuran-5-carboxylic acid (2-piperidin-1-yl-benzooxazol-5-yl)-amide]
21 | 25.5 | O=C(Nc1ccc2c(c1)OCCO2)c1ccc2sc(N3CCC(F)(F)CC3)nc2c1 [Example 204, 2-(4,4-Difluoro-piperidin-1-yl)-benzothiazole-5-carboxylic acid (2,3-dihydro-benzo[1,4]dioxin-6-yl)-amide]
22 | 0.812 | O=C(Nc1ccc2oc(N3CCS(=O)(=O)CC3)nc2c1)c1ccc2c(c1)CCCO2 [Example 40, Chroman-6-carboxylic acid [2-(1,1-dioxo-thiomorpholin-4-yl)-benzooxazol-5-yl]-amide]
23 | 2.19 | CN1CCOc2ccc(C(=O)Nc3ccc4oc(N5CCCC6(COC6)C5)nc4c3)cc21 [Example 189, 4-Methyl-3,4-dihydro-2H-benzo[1,4]oxazine-6-carboxylic acid [2-(2-oxa-6-aza-spiro[3.5]non-6-yl)-benzooxazol-5-yl]-amide]
24 | 0.414 | O=C(Nc1ccc2c(c1)CCO2)c1ccc2oc(N3CCCCC3)nc2c1 [Example 76, 2-Piperidin-1-yl-benzooxazole-5-carboxylic acid (2,3-dihydro-benzofuran-5-yl)-amide]
25 | 3.66 | O=C(Nc1ccc2sc(N3CCC(F)(F)C3)nc2c1)c1ccc2c(c1)CCO2 [Example 88, 2,3-Dihydro-benzofuran-5-carboxylic acid [2-(3,3-difluoro-pyrrolidin-1-yl)-benzothiazol-5-yl]-amide]
26 | 4.33 | O=C(Nc1ccc2sc(N3CC4(COC4)C3)nc2c1)c1ccc2c(c1)CCO2 [Example 91, 2,3-Dihydro-benzofuran-5-carboxylic acid [2-(2-oxa-6-aza-spiro[3.3]hept-6-yl)-benzothiazol-5-yl]-amide]
